“Also recorded” adds a separate entry of the source.
Experiments:
Deoxyguanosine kinase = target: T1, Deoxyguanosine kinase (Homo sapiens, UniProt Q16854); assay: MTX-agarose affinity chromatography of cell lysate, MS identification; assay type: binding; conditions: HEK 293 lysate
T1 construct: endogenous in cells; host or cells: HEK 293
T1 sequence (Q16854 40-277): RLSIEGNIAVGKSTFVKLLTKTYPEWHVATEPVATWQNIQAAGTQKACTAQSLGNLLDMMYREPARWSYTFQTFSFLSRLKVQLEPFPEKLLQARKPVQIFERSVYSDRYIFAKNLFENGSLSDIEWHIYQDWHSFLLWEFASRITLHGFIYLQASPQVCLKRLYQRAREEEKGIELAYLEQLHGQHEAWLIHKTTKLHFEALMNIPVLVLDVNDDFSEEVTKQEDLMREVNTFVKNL
Method: (§1) After incubation for 30 minutes at 4° C. with shaking, the lysates were clarified by centrifugation (27,000×g). In some experiments, cells were lysed using 20 strokes of a Dounce® homogenizer in the absence of detergents. […] While optimizing the protocol, however, several experimental variations were tested on cell lysates including concentration by ammonium sulfate precipitation, or removal of nucleic acid with Streptomycin sulfate. In such cases, the protein sample was desalted using a PD 10 protein-desalting column (Pharmacia), which had been pre-equilibrated in the same buffer (10 mM potassium phosphate pH 7.5)
(§2) Affinity Chromatography: The desalted lysate was loaded onto a column of pre-equilibrated MTX-agarose (Sigma, 50 μL bed volume) or sepharose 4B agarose as a negative control. The lysates were allowed to slowly flow through the matrix under gravity flow. […] Retentates from the microcons were then loaded onto SDS-PAGE 4%-15% gradient mini gels (Bio-Rad). […]
(§3) The peptides were then separated by reverse phase chromatography on C18 resin and directly injected into a mass spectrometer using an automated sample-loading device from 96 well plates. […] The spectra generated were analyzed on a custom-built multi-node server platform (RADARS, ProteoMetrics), which uses two database searching programs, Sonar (ProteoMetrics) and Mascot (Matrix Sciences). […]

Pyridoxal Kinase = target: T2, Pyridoxal Kinase (Homo sapiens, UniProt O00764); assay: as above; assay type: binding; conditions: HEK 293 lysate
T2 construct: endogenous in cells; host or cells: HEK 293
T2 sequence (O00764 1-312): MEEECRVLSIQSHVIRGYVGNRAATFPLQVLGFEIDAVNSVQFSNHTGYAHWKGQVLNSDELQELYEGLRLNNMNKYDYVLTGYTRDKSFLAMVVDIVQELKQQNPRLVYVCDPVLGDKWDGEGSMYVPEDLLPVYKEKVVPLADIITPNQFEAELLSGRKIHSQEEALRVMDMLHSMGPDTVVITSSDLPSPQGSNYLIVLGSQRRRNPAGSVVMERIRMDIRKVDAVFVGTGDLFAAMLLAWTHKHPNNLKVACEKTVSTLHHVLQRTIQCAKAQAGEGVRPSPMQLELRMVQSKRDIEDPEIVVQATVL
Method: as §1, §2, §3

AIR carboxylase = target: T3, AIR carboxylase (Homo sapiens, UniProt P22234); assay: as above; assay type: binding; conditions: HEK 293 lysate
T3 construct: endogenous in cells; host or cells: HEK 293
T3 sequence (P22234 1-425): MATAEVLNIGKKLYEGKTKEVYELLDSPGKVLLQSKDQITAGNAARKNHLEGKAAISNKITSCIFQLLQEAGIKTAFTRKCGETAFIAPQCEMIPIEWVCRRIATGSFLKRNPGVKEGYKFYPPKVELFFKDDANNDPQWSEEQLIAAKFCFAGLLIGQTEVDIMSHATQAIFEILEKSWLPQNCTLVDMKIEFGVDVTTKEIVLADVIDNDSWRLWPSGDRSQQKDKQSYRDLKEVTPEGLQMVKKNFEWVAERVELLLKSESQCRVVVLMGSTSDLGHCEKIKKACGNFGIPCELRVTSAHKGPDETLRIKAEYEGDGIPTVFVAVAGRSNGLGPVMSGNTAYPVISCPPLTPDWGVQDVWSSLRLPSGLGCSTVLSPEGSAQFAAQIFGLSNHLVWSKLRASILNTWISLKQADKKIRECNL
Method: as §1, §2, §3

Deoxycytidine Kinase = target: T4, Deoxycytidine Kinase (Homo sapiens, UniProt P27707); assay: as above; assay type: binding; conditions: HEK 293 lysate
T4 construct: endogenous in cells; host or cells: HEK 293
Method: as §1, §2, §3

Glutathione synthase = target: T5, Glutathione synthase (Homo sapiens, UniProt P48637); assay: as above; assay type: binding; conditions: HEK 293 lysate
T5 construct: endogenous in cells; host or cells: HEK 293
T5 sequence (P48637 1-474): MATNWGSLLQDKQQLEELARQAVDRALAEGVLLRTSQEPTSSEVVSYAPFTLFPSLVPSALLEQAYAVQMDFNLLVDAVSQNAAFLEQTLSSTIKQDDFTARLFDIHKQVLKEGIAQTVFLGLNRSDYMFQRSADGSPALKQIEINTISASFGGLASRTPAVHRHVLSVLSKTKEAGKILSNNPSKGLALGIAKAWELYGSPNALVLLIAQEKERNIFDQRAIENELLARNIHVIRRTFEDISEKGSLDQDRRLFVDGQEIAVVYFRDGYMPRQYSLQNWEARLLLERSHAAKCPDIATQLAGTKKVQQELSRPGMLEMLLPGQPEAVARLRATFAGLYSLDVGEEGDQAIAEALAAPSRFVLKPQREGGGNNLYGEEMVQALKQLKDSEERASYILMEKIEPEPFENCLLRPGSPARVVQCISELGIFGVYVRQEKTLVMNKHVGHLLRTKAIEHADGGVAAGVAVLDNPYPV
Method: as §1, §2, §3

SAICAR synthetase = target: T6, SAICAR synthetase (Homo sapiens, UniProt P22234); assay: as above; assay type: binding; conditions: HEK 293 lysate; bifunctional enzyme with AIR carboxylase
T6 construct: endogenous in cells; host or cells: HEK 293
T6 sequence (P22234 1-425): T3 sequence (P22234 1-425)
Method: as §1, §2, §3

[1] = target: T7, muscle glycogen phosphorylase b (Homo sapiens, UniProt P11217); conditions: cited from earlier work
T7 sequence (P11217 1-842): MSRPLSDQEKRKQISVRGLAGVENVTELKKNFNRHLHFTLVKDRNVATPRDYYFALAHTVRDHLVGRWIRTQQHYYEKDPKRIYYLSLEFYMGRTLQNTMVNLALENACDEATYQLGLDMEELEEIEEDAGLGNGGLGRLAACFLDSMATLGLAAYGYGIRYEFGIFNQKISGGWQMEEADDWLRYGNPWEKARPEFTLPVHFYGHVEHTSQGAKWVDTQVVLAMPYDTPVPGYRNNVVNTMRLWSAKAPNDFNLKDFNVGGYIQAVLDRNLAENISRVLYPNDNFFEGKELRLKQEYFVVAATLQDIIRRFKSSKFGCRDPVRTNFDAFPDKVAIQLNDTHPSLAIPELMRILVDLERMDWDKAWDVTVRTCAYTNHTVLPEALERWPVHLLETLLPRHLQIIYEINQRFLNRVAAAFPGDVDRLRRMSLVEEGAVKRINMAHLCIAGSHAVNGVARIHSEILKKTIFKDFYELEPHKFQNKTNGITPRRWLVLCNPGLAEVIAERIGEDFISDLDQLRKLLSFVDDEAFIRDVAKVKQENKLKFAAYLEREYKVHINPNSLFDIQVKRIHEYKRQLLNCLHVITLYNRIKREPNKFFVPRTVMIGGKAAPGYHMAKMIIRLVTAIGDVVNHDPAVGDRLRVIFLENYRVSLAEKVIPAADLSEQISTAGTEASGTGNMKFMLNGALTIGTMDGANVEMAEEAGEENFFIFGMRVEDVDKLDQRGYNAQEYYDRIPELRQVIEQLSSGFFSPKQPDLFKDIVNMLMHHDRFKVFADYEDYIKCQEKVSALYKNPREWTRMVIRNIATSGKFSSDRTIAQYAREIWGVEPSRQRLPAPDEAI

[2] = system: intracellular levels of PRPP; conditions: reversible upon treatment with hypoxanthine; cited from earlier work
[3] = target: Amido phosphoribosyltransferase (Homo sapiens, UniProt Q06203); assay: MTX-agarose affinity chromatography of cell lysate, MS identification; assay type: binding; parameters: endogenous in cells; host or cells: HEK 293 (also Jurkat, K562, A431); conditions: lysates from HEK293, Jurkat, K562 and A431
Amido phosphoribosyltransferase, sequence (Q06203 12-517): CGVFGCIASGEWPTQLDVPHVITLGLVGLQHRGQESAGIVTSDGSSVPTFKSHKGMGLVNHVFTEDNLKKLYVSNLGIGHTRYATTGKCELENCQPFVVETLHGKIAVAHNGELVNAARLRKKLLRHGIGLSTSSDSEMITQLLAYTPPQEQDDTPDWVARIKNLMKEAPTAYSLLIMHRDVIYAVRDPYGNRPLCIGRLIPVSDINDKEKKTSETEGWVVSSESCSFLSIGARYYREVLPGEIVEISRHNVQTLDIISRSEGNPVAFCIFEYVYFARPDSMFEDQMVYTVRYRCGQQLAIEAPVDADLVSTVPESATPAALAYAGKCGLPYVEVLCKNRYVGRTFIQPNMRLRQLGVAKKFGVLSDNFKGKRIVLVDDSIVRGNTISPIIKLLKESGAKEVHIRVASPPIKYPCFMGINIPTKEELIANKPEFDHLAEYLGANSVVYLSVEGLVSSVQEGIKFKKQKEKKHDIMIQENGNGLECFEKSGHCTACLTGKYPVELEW
Method: as §1, §2, §3

T4 sequence (P27707 whole entry): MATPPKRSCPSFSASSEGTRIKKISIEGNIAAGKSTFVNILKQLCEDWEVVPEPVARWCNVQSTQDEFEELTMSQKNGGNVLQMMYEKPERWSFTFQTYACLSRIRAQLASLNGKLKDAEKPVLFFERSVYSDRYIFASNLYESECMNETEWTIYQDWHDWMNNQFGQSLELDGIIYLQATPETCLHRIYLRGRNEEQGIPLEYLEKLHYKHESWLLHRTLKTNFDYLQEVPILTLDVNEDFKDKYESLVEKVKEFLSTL

Compound: CN(Cc1cnc2nc(N)nc(N)c2n1)c1ccc(C(=O)N[C@@H](CCC(=O)O)C(=O)O)cc1 [Methotrexate]
- Protein identified by Mass Spec.; New MTX interactor (Deoxyguanosine kinase): binds to Methotrexate through a direct interaction
- Protein identified by Mass Spec.; New MTX interactor (Deoxyguanosine kinase; listed as MTX): ✓
- Protein identified by Mass Spec.; New MTX interactor (Pyridoxal Kinase): direct binder of Methotrexate
- Protein identified by Mass Spec.; New MTX interactor (Pyridoxal Kinase; listed as MTX): ✓
- Association with the Methotrexate matrix (AIR carboxylase): associated indirectly with Methotrexate
- Association with the Methotrexate matrix (Deoxycytidine Kinase): indirect interaction with Methotrexate
- Association with the Methotrexate matrix (Glutathione synthase): consistently found
- Association with the Methotrexate matrix (SAICAR synthetase): a single band contained peptides from both domains
- inhibition of muscle glycogen phosphorylase b [1]: reversible inhibitors
- effect on levels of PRPP [2]: raising the intracellular levels of PRPP; also recorded: increase on levels of PRPP
- Protein identified by Mass Spec.; New MTX interactor [3]: found to interact with Methotrexate
- Protein identified by Mass Spec.; New MTX interactor ([3]; listed as MTX): ✓

Source: US20030166007A1, “Chemical proteomics” (MDS Proteomics Inc., priority 2002, published 2003)
